BindingDB's records for PubMed 38943600 (China Pharmaceutical University)
*1 amine or outer side, *2 acyl side, *3 side chain or, on linkers, in order; H or OH if unused. Where a SMILES comes first, the peptide text is derived from it. The star is where a group is joined. ξ: configuration not given here. X6 = Nc1ccn(C2OC(COC(=O)CCCCCN3C(=O)CC(*)C3=O)C(O)C2(F)F)c(=O)n1; C18 diacid = O=C(O)CCCCCCCCCCCCCCCCC(=O)*; ξγGlu = O=C(O)C(CCC(=O)[*:2])N[*:1]; AEEA = NCCOCCOCC(=O)O

Target: Inactive tyrosine-protein kinase transmembrane receptor ROR1 (Homo sapiens, UniProt Q01973)
Assay: Binding affinity to N-terminal His/GST-tagged recombinant human ROR1 (453 to 783 residues) extracted from baculovirus infected insect cells assessed as dissociation constant by SPR analysis

Chain of Inactive tyrosine-protein kinase transmembrane receptor ROR1 (Q01973 whole entry, the tested form may be a part): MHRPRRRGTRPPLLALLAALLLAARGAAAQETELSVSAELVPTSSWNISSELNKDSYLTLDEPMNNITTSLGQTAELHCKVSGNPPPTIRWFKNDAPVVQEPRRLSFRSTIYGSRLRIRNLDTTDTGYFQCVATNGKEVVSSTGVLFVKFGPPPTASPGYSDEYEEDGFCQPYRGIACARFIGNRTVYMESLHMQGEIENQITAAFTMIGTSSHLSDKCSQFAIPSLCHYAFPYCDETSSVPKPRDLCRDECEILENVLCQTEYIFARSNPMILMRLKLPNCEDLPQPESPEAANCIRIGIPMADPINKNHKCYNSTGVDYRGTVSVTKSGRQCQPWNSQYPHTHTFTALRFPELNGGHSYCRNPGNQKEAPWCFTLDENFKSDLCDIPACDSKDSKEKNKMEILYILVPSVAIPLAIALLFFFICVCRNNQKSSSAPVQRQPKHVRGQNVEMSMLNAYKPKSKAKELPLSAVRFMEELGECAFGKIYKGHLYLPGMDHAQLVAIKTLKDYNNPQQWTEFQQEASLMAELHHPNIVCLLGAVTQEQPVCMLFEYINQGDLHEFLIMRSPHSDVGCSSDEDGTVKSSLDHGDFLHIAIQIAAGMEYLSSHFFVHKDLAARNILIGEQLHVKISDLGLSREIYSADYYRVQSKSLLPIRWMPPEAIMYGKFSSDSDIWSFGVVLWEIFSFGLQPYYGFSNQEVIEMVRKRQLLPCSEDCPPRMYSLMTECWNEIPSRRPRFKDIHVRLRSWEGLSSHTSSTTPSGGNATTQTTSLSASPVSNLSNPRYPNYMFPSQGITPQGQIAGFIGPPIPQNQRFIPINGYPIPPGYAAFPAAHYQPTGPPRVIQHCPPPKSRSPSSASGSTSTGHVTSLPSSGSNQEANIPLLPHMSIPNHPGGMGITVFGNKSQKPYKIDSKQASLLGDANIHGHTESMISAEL

CC[C@H](C)[C@H](NC(=O)[C@H](CC(=O)O)NC(=O)[C@H](CO)NC(=O)CNC(=O)[C@H](CSC1CC(=O)N(CCCCCC(=O)OCC2OC(n3ccc(N)nc3=O)C(F)(F)C2O)C1=O)NC(=O)CNC(=O)[C@H](CCCCN)NC(=O)COCCOCCNC(=O)COCCOCCNC(=O)CCC(NC(=O)CCCCCCCCCCCCCCCCC(=O)O)C(=O)O)C(=O)N[C@@H](CC(N)=O)C(=O)N[C@@H](CC(=O)O)C(=O)N[C@@H](CCCNC(=N)N)C(=O)N[C@@H](CCC(N)=O)C(=O)N[C@H](C(=O)N1CCC[C@H]1C(=O)NCC(=O)N[C@@H](Cc1ccc(O)cc1)C(=O)N[C@@H](CO)C(=O)N[C@H](C(=O)N[C@@H](Cc1ccc(O)cc1)C(=O)N[C@@H](Cc1c[nH]c2ccccc12)C(=O)NCC(=O)N[C@@H](CC(=O)O)C(=O)N[C@@H](Cc1ccccc1)C(N)=O)[C@@H](C)O)[C@@H](C)CC (stereo partly specified) ({C18 diacid-ξγGlu-AEEA-AEEA}-KGC(X6)GSDINDRQIPGYSTYWGDF-NH2)
Kd: 1.2 nM
